Details: half-life period of decomposition 10 hours; 0,1 M solution in chlorobenzene

C=CC(C)(C)OOC(C)(C)c1ccccc1 [peroxide 3, α-(2-methyl-3-buten-2-ylperoxy)isopropylbenzene]
Temperature (°C) for t½ of 10 hours: 106 °C

— patent EP0273990B1, “Novel organic peroxides and their use in the preparation of epoxide groups containing (co)polymers” (AKZO N.V., priority 1986, dated 1988)
